From patent US5792742A, “Fibrin-binding peptide fragments of fibronectin” (New York University, priority 1994, dated 1998)

Assays:
[1] = test system: fibrin; assay: Fibrin-SEPHAROSE affinity chromatography (binding and elution); set-up: species or system bovine; conditions: temperature change vs denaturing conditions (6M urea or 50% ethylene glycol) for elution
Protocol: Bovine fibrinogen was cross-linked to CNBr-activated SEPHAROSE™ (5 mg/ml beads) according to the manufacturer's instructions. Coupled fibrinogen was subsequently converted to fibrin by incubation with human thrombin to a final concentration of 5 NIH units/ml and 100 K.I. (kallikrein inhibitory) units/ml of aprotinin (in 0.05M Tris-HCI buffer, pH 7.6, containing 0.1M NaCl and 0.01M EDTA) for three hours, at room temperature (Gold, et al. (1983) Biochemistry 22, 4113-4119).
1.0M NaCl in 0.05M tris buffer, pH 8.0.
The fibrin-binding activity of the proteolytically derived 25.9 kDa fragment of Fn was determined by its ability to bind to a fibrin affinity matrix. […] FBB was used to equilibrate and wash the column. Following warming of the column to 22° C., the column was washed with FBB until absorbance at 280 nm (A280) was less than 0.01, and bound protein eluted with 0.05M Tris-HCl, 0.5M NaCl, 6M urea buffer, pH 7.6.
The module (500 μg/1.0 ml) was incubated for 4 hours (while rotating) at 4° C. in the presence of 1.0 ml fibrin-SEPHAROSE™ (5 mg fibrin/ml SEPHAROSE™ beads) equilibrated in […] Tris-HCl, 0.1M NaCl buffer, pH 7.6.
The 11 KDa peptide (50 μg/0.206 ml) was radiolabeled using the IODO-BEAD method (Pierce Chemical). The peptide was added to one IODO-BEAD in the presence of 100 μCi ^125 I (17.4 Ci/mg, New England Nuclear) and incubated on ice for 10 minutes. The bead was removed and the free ^125 I removed by chromatography through a PD10 column containing SEPHADEX™ G-25 (Pharmacia). […] The radioiodinated 11 kDa fibrin-binding peptide (500 μg/1.5 ml) was combined with 1 ml of fibrin-SEPHAROSE™ (5 mg fibrin/ml beads) equilibrated with 50 mM Tris-HCl, 0.1M NaCl buffer, pH 7.6, and rotated for 4 hours, at 4° C. The mixture was poured onto a disposable column (0.6 cm×8.0) and the unbound protein washed through. The column was equilibrated to room temperature and washed with the equilibration buffer.

[2] = test system: fibrin; assay: Elution of 11 kDa fragment from fibrin-SEPHAROSE with various agents (Table III); format: binding, bovine; conditions: rotated in the cold overnight
Protocol: Since complete recovery of fibrin-binding activity was desired for use of the molecule in clinical application, various buffers were tested in an attempt to optimize recovery of the peptide while retaining maximal biological activity.

[3] = test system: fibrin; assay: Rebinding of eluted 11 kDa fragment to fibrin column; format: binding, bovine
Protocol: Thus, although 100% of the 11 kDa peptide that was applied to the column could be eluted, only 40-50% of the protein rebound to a second fibrin column at 4° C., and only 20% bound at 37° C.
The 11 kDa peptide of fibronectin (or 25.9 kDa peptide) and genetically engineered and expressed proteins of fibronectin type I repeat modules are subjected to fibrin-SEPHAROSE™ chromatography as described above.

[4] = test system: fibrinogen; assay: Binding of eluted 11 kDa fragment to fibrinogen-SEPHAROSE column; conditions: 37° C.; ethylene glycol eluted material
[5] = test system: fibrin; assay: Competitive inhibition of 125I-11 kDa binding to fibrin-coated wells; conditions: 125I-11 kDa 90 nM
Protocol: Analysis of the binding data was performed by non linear regression and curve fitting to the one-site competitive binding curves (GraphPad Prism).

[6] = test system: fibrin; assay: Reversibility (displacement) of 125I-11 kDa FBP binding to fibrin; conditions: 2,000 nM unlabeled peptide (22.2 molar excess)
Protocol: Detachable microtiter wells previously coated with 15 ng of fibrin were incubated with 100 ng/0.1 ml FBB (90 nM) of ^125 I-11 kDa for 1 hour at 22° C. The unbound radiolabeled protein was removed by extensive washing with FBB containing 0.1% Tween 20. […] The iodinated 11 kDa that remained bound to the removable wells was determined by quantitating the radioactivity attached to the individual wells in a gamma counter. Results were expressed as percentage of control wells incubated with buffer alone.

[7] = test system: thrombi; assay: Preliminary thrombus binding dose experiment in rats; format: in vivo; conditions: 3.4 μCi/13.3 μg/rat (550 gr)
Protocol: Determination of thrombus to blood and thrombus to muscle ratios: Before performing the pharmacokinetic studies, the arterial and venous vessels of the same animals are wounded until a thrombus is formed. The ascending vena cava (below the kidneys) and the descending aorta (immediately above the bifurcation) are clamped with a rubber tipped mosquito clamps for 2 hours for the artery and one hour for the vein. A thrombotic occlusion is formed of approximately 1.5 cm length. The specific binding of ^125 I-FBP (11 kDa to start) to the preformed thrombus, is determined compared to blood and muscle (wt/wt), over time, following injection. The amount of ^125 I-FBP that binds to an injured vessel versus an uninjured vessel is also quantitated. The time for optimal binding is crucial for feasibility of imaging (less than two hours would be considered adequate). The testing of binding to thrombi prepared 24 hours (or longer) ahead (preformed thrombi) compared to newly formed thrombi is also performed. This will determine the efficacy of ^125 I-FBP to older and newly forming thrombi.
Dosimetry Studies: Determination of the optimal dose (μCi/μg/kg) required for binding (Dose response) to thrombi: Three different doses were injected following injury, and thrombi removed at the various indicated above.

## 11 kDa FBP: 11 kDa C-terminal proteolytic (subtilisin) fibrin-binding fragment of human plasma fibronectin, residues 2123-2232 of SEQ ID NO:1
[1]
  relative affinity for fibrin (from elution conditions): markedly higher
[2]; agent 1.0M Arginine, listed as 11 kDa FIBRIN-BINDING FRAGMENT
  % ELUTED from fibrin-SEPHAROSE: 26%
[2]; agent 1.0M Arginine, listed as 11 kDa peptide
  % ELUTED from fibrin-SEPHAROSE: 25%
[2]; agent 1.0M KBr
  % ELUTED from fibrin-SEPHAROSE: 55-65%
[2]; agent 2.0M Urea
  % ELUTED from fibrin-SEPHAROSE: 32%
[2]; agent 4.0M Urea
  % ELUTED from fibrin-SEPHAROSE: 50-60%
[2]; agent 6.0M Urea
  % ELUTED from fibrin-SEPHAROSE: 100%
[2]; agent 50% ethylene glycol, pH 11.5
  % ELUTED from fibrin-SEPHAROSE: 77%
[3]; 4° C., eluted with 1.0M KBr
  % Rebound to fibrin: 7-10%
[3]; 4° C., eluted with 2.0M Urea
  % Rebound to fibrin: 60%
[3]; 4° C., eluted with 4.0M Urea
  % Rebound to fibrin: 45-52%
[3]; 4° C., eluted with 6.0M Urea
  % Rebound to fibrin: 40-50%
[3]; 4° C., eluted with 6.0M Urea (step dialysis)
  % Rebound to fibrin: 40-50%
[3]; 4° C., eluted with ethylene glycol, listed as 11 kDa FRAGMENT
  % Rebound to fibrin: 80%
[3]; 4° C., eluted with ethylene glycol, listed as 11 kDa peptide
  % Rebound to fibrin: 60%
[3]; 37° C., eluted with 6.0M urea
  % Rebound to fibrin: 20%
[3]; 37° C., eluted with ethylene glycol
  % Rebound to fibrin: 49.5%
[4]
  % of applied material bound to fibrinogen-SEPHAROSE column: 4-5%
[5]
  concentration at which maximum inhibition was achieved: 4 µM
  molar excess at maximum inhibition: 44.4
[5]; 15 ng fibrin, 1 hour 22° C., read-out: IC50, 125I-11 kDa binding to fibrin decreased by 50%
  IC50: 605 nM
[6]
  % of bound iodinated 11 kDa reversibly displaced: 42%
[7]
  binding to thrombi compared to blood: sufficient binding to thrombi compared to blood
